We go through five compounds from patent US20250109156A1, “INDOLE-CONTAINING MACROCYCLIC COMPOUNDS AND USES THEREOF” (JIANGSU AOSAIKANG PHARMACEUTICAL CO., LTD., priority 2022, published 2025).

Bounds are passed on as bounds.

One data set has as its target CDK2/CyclinE1 (Homo sapiens (Human), UniProt P24941). Nature of the data set: In vitro CDK2/CyclinE1 enzyme activity assay (TR-FRET). It is filed as biochemical. The settings on record: Ulight-4E-BP1 peptide, 25° C. 120 minutes. On the procedure: Experimental Example 2: In Vitro CDK2/[…] Enzyme Activity Assay
CDK2/CyclinE1 was purchased from SignalChem. Ulight-4E-BP1 peptide, Eu-anti-phospho-tyrosine antibody, and 1× detection buffer were purchased from PerkinElmer. High-purity ATP was purchased from Promega. EDTA was purchased from Sigma. Nivo multimode microplate reader (PerkinElmer).
Preparation of kinase buffer: the kinase buffer containing 50 mM HEPES, 1 mM EDTA, 10 mM MgCl2, 0.01% Brij-35, pH 7.4.
2.38 g of HEPES, 58 mg of EDTA, 406 mg of MgCl2, and 20 mg of Brij-35 were added to 200 mL of buffer, and the pH was adjusted to 7.4.
100 μL of 1 M EDTA stock solution was mixed with 0.625 μL of 1× detection buffer and 1725 μL of distilled water to prepare the stop solution.
Enzyme, Ulight-4E-BP1 peptide, ATP, and inhibitors were diluted with the kinase buffer.
The Eu-anti-phospho-tyrosine antibody was diluted to a concentration of 8 nM/L using detection buffer.
The compounds to be tested were 5-fold diluted with a multi-channel pipette to the 8th concentration, i.e., from 40 μM to 0.512 nM, with a final DMSO concentration of 4%. The experiment was set up in duplicate wells. 2.5 μL of each concentration gradient of the inhibitor was added to the microplate, followed by 5 μL of CDK2/CyclinE1 enzyme (10 ng), and 2.5 μL of a mixture of substrate and ATP (4 mM ATP, 100 nM Ulight-4E-BP1 peptide). At this point, the final concentration gradient of the compound was 10 μM diluted to 0.128 nM. The reaction system was reacted at 25° C. for 120 minutes. After the reaction, 5 μL of stop solution was added to each well, and the reaction was continued at 25° C. for 5 minutes. After stopping the reaction, 5 μL of Eu-anti-phospho-tyrosine antibody dilution was added to each well, and the mixture was reacted at 25° C. for 60 minutes. Data were then collected using the PerkinElmer Nivo multimode microplate reader in TR-FRET mode (excitation wavelength: 320 nm, emission wavelength: 665 nm).
Using the equation (Sample−Min)/(Max−Min)*100% to convert the raw data into inhibition rate, the IC50 value may be obtained by curve fitting with four parameters (obtained by “log (inhibitor) vs. response—Variable slope” mode in GraphPad Prism). Table 1 provides the CDK2/CyclinE1 enzymatic inhibitory activity of the compounds of the present disclosure.

A further data set deals with HCC70 cells. Nature of the data set: In vitro HCC70 cell activity assay (CellTiter-Glo proliferation). The note with it: Homo sapiens, 96 h, 4 days incubation. It is filed as cell-based. On the procedure: Experimental Example 4: In Vitro HCC70 Cell Activity Assay
1640 culture medium, fetal bovine serum, penicillin/streptomycin antibiotics were purchased from WISENT. CellTiter-Glo (cell viability chemiluminescence detection reagent) reagent was purchased from Promega. HCC70 cell line was purchased from Nanjing Cobioer Biosciences Co. Ltd. Nivo multimode microplate reader (PerkinElmer).
The HCC70 cells were seeded in a white 96-well plate, with 80 μL of cell suspension per well, containing 6000 HCC70 cells each. The cell plate was incubated overnight in a CO2 incubator. The compounds to be tested were 3-fold diluted with a multi-channel pipette to the 8th concentration, i.e., diluted from 2 mM to […], and the experiment was set up in duplicate wells. 78 μL of culture medium was added to an intermediate plate, and then 2 μL of gradient diluted compound per well was transferred to the intermediate plate according to the corresponding position. After mixing well, the compound was transferred to the cell plate at 20 μL per well. The concentration of the compound transferred to the cell plate ranged from 10 μM to 1.52 nM. The cell plate was incubated in a CO2 incubator for 4 days. Another cell plate was prepared to measure the signal on the day of drug addition as the maximum value (denoted as Max in the equation below) for data analysis. 25 μL of cell viability chemiluminescence detection reagent was added to each well of this cell plate, and incubated at room temperature for 10 minutes to stabilize the luminescent signal. A multimode microplate reader was used for reading.
25 μL of cell viability chemiluminescence detection reagent was added to each well of this cell plate, and incubated at room temperature for 10 minutes to stabilize the luminescent signal. A multimode microplate reader was used for reading.
Using the equation (Sample−Min)/(Max−Min)*100% to convert the raw data into inhibition rate, the IC50 value may be obtained by curve fitting with four parameters (obtained by “log (inhibitor) vs. response—Variable slope” mode in GraphPad Prism). Table 1 provides the inhibitory activity of the compounds of the present disclosure on the proliferation of HCC70 cells.
(In general: In ATP-based viability assays light output follows the ATP content of the culture.)

The test system of data set [1] is HCC70 breast cancer xenograft (CDX). The experiment in a line: In vivo efficacy study, HCC70 breast cancer CDX model. More on the design: species or system BALB/c nude mice. The note with it: for Animal tolerance: BALB/c nude mice, HCC70 CDX. On the procedure: Experimental Example 6: In Vivo Efficacy Study
In vivo efficacy experiments were conducted on BALB/c nude mice subcutaneously implanted with human tumor cell line-based xenograft (CDX) derived from HCC70 breast cancer patients.
BALB/c nude mice, female, 6 to 8 weeks old, weighing approximately 19 to 23 g, were maintained in a special pathogen-free environment in individual ventilated cages (6 mice per cage). All cages, bedding, and water were disinfected before use. All animals had free access to a standard certified commercial laboratory diet. A total of 36 mice, purchased from the Laboratory Animal Department of the Shanghai Institute of Planned Parenthood Research (formerly Shanghai SIPPR-BK), were used for the study. Each mouse was injected with 10×10^6 HCC70 cells on the right side of the neck, with an injection volume of 0.2 mL, and the cell suspension was in a 1:1 ratio of PBS and Matrigel. When the average tumor volume reached approximately 179 mm^3, random grouping was performed, and dosing was initiated.
Tumor volume was measured twice a week with a two-dimensional caliper, and the volume was measured in mm^3 and calculated by the following equation: V=0.5 a×b^2, where a and b are the long and short diameters of the tumor, respectively.

Broadly, the IC50 is the concentration at which inhibition is half-maximal. Low values mean greater potency, high ones weaker potency. Turning to `CN1CCCCN2CCCC[C@@H](C2)Nc2ncc(C(F)(F)F)c(n2)-c2c[nH]c3c(P(C)(C)=O)c(ccc23)C1=O` [Compound 3], the half-maximal inhibitory concentration (IC50) at CDK2/CyclinE1 is greater than 1000 nM; in the data set on HCC70 cells, 1.4 nM.

With `CP(C)(=O)c1c2ccc3c(c[nH]c13)-c1nc(ncc1C(F)(F)F)N[C@H]1CCCN(CCCCCCO2)C1` [Compound 4], the IC50 on CDK2/CyclinE1 was greater than 1000 nM; in the data set on HCC70 cells, 0.6 nM.

`CP(C)(=O)c1c2ccc3c(c[nH]c13)-c1nc(ncc1C(F)(F)F)N[C@H]1CCCN(CCCCNC2=O)C1` [Compound 5]: on CDK2/CyclinE1, the IC50 worked out at 738 nM. Moreover, the IC50 in the data set with HCC70 cells is 1 nM. For the same compound, in data set [1] (dose 3 mg/kg), the Animal tolerance entry was “Good”, the “Tumor volume Day 0” value is on record as 179 mm^3, the “Tumor volume Day 7” value is 260 mm^3 and the “Tumor volume Day 14” value stood at 305 mm^3. In addition, the “Tumor volume Day 21” value in data set [1] (dose 3 mg/kg) is 230 mm^3.

Take `CP(C)(=O)c1c2ccc3c(c[nH]c13)-c1nc(ncc1C(F)(F)F)N[C@H]1CCCCN(CCCCNC2=O)C1` [Compound 6]: the IC50 against CDK2/CyclinE1 is greater than 1000 nM. In the data set with HCC70 cells, this compound showed a half-inhibitory concentration (IC50) of 1.8 nM. For the same compound, in data set [1] (dose 3 mg/kg), the Animal tolerance entry is given as “Good”, the “Tumor volume Day 0” value is listed as 179 mm^3, the “Tumor volume Day 7” value is 272 mm^3 and the “Tumor volume Day 14” value is 344 mm^3. Further, the “Tumor volume Day 21” value in data set [1] (dose 3 mg/kg) was 403 mm^3.

Take `CN1CCCCN2CCC[C@@H](C2)Nc2ncc(C(F)(F)F)c(n2)-c2c[nH]c3c(P(C)(C)=O)c(ccc23)C1=O` [Formate of compound 1]: the IC50 against CDK2/CyclinE1 came to 253 nM. Further, the half-inhibitory concentration (IC50) with HCC70 cells was less than 1.5 nM. In data set [1] (dose 1.5 mg/kg), the Animal tolerance entry is “Good”, the “Tumor volume Day 0” value is listed as 179 mm^3, the “Tumor volume Day 7” value is given as 273 mm^3 and the “Tumor volume Day 14” value was determined as 178 mm^3. The “Tumor volume Day 21” value in data set [1] (dose 1.5 mg/kg) was 105 mm^3.
